What all share (type): biochemical
The target in assay [1] is T1, human matrix metalloproteinase-2 (MMP-2; gelatinase A) (Homo sapiens, UniProt P08253).
T1 construct: to prepare the enzymatically active mature form of the enzyme; endogenous in cells; host or cells: human dermal fibroblasts (secreted into culture supernatant)
T1 sequence (P08253 110-660): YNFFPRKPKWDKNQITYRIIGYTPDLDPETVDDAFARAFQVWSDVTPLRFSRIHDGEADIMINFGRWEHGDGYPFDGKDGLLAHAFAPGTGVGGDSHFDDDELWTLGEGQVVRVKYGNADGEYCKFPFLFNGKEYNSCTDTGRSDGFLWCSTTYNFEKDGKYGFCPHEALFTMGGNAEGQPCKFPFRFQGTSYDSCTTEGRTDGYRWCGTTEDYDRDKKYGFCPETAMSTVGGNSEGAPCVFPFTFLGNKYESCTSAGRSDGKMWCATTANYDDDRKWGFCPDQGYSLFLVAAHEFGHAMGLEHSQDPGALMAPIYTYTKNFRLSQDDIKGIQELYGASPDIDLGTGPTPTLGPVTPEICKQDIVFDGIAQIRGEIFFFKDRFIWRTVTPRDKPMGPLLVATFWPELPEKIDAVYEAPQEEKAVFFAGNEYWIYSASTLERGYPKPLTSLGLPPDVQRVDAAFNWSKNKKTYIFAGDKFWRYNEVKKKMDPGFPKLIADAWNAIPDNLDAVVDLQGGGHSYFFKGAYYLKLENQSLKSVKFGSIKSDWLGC
Nature of the assay: Inhibition of human matrix metalloproteinase-2 (gelatinase A). Conditions: trypsin-activated MMP-2 from human dermal fibroblast culture supernatant; read-out: MMP-2 (50% inhibition). The source says: MMP-2 is easily prepared by standard procedures from the culture medium of cultivated human fibroblasts in reasonable quantities, and is therefore readily available. […] A screening system based on the measurement of the proteolytic activity of MMP-2 was developed to analyse the inhibitory effects of the various inhibitors described in Table 1.
To this end, human dermal fibroblasts were obtained and maintained in culture using standard methods. The cell-free culture supernatant containing the secreted pro-MMP-2 was treated with trypsin. The trypsin was inactivated with the specific active-site serine proteinase inhibitor Nα-p-tosyl-L-lysine-chloromethylketone (TLCK), and the active MMP-2 was partially purified by gel filtration on Sepharose 4B. The isolated MMP-2 was identified and characterized by the use of a commercially available immunoassay.
A simple nonradioactive assay was developed to measure MMP-2 activity using gelatin as a substrate that allows both a large number of samples to be analysed in parallel and to generate kinetic data. Partially purified MMP-2 was incubated with a suitable dilution of gelatin under standardized conditions (time, buffer, pH, temperature, inhibitor, additives), and uncleaved gelatin was separated from degradation products by suction filtration through a nitrocellulose filter. High-molecular-weight gelatin is thereby bound to the nitrocellulose filter, and the low-molecular-weight gelatin-derived peptides pass through it. The nitrocellulose-bound gelatin can be stained with Ponceau S or Commassie Brilliant Blue protein stains, and the degree of staining quantified densitometrically using a commercially available electrophoresis gel documentation system supported by dedicated analytical software. The nitrocellulose filtration is conducted using a commercially available dot- or slot-blotting apparatus.
The gelatinase assay described here has been validated by comparison with results obtained with an established collagenase assay using radioactive or fluorescently labeled collagen as substrate.
(§1) The enzymatic cleavage of commercially available synthetic internally quenched fluorigenic peptide substrates such as 7-methylcoumarin-4-yl-acetyl-prolyleucyl-glycyl-leucyl-(dinitrophenyl-L-α,β-diaminopropionyl)-alanyl-arginylamide (Mca-Pro-Leu-Gly-Leu-Dap(Dnp)-Ala-Arg-NH2) at the scissile -Gly-Leu-peptide bond separates the fluorescent Mca group from the dinitrophenol quencher, resulting in a strong linear increase in fluorescence intensity that can be readily measured in a fluorimeter (λexitation328 nm, λemission 393 nm) over the first few minutes of the reaction. The specificity of the assay for matrix metalloproteinases is provided by the type I collagen-derived sequence -Pro-Leu-Gly-Leu- in the synthetic substrate, as well as by the incubation conditions. To test the efficacy of the synthetic collagenase/MMP inhibitors, the residual enzymatic activity remaining after an incubation of enzyme plus different amounts of inhibitor is measured at a fixed enzyme and substrate concentration. For each inhibitor, three test series at different fixed substrate concentrations were carried out. From the time-dependent increase in fluorescence intensity measured, the velocity (v) of the enzymatic activity can be calculated as increase in arbitrary fluorescence intensity units per minute. The inhibition constant Ki is calculated graphically by the method of Dixon (1953) by plotting the reciprocal of the reaction velocity 1/v on the ordinate, and the inhibitor concentration on the abscissa. The x-intercept of the linear plot is defined as minus K1 value.
1984 μl assay buffer (100 mM Tris-HCl pH 7,5, 100 mM NaCl, 10 mM CaCl2, 0,05% Brij 35) • 2 μl inhibitor dissolved in DMSO, or DMSO alone as a solvent control • 4 μl enzyme (MMP-2, MMP-9, or the catalytic domain of MMP-8) • 10 μl Mca-Pro-Leu-Gly-Leu-Dap(Dnp)-Ala-Arg-NH2 in DMSO Method • 1. […]

Assay [2] concerns the target T2, catalytic domain of human matrix metalloproteinase-8 (MMP-8; neutrophil collagenase) (Homo sapiens, UniProt P22894).
T2 construct: express heterologously only the catalytic domain, rather than the entire MMP-8, in Escherichia coli; made in house; host or cells: Escherichia coli
The experiment in a line: Inhibition of catalytic domain of human MMP-8, fluorimetric assay, Dixon plot. Conditions: recombinant catalytic domain, Mca-Pro-Leu-Gly-Leu-Dap(Dnp)-Ala-Arg-NH2 substrate.
Text: The catalytic domain of MMP-8 was chosen as a further test enzyme because of its high stability and constitutive activity, obviating the need for enzymatic or chemical activation, which is a well-known source of error, e.g. the commonly used organomercurial compounds used to activate pro-MMPs may interfere in subsequent assays or affect the activity of the enzyme, leading to erroneous interpretation of results. The cloning strategy was designed to express heterologously only the catalytic domain, rather than the entire MMP-8, in Escherichia coli. With the so-constructed expressed catalytic domain, we obtained a stable enzymatically active, highly pure enzyme that is well suited for routine investigation of the efficacy of the synthetic inhibitors and provides highly reproducible test results.
The cloning and expression of the recombinant catalytic domain of MMP-8 follows the protocol developed by Schnierer et al. (Schnierer, S., Kleine, T., Gote, T., Hilleman, A., Knäuper, V., and Tschesche, H., 1993, The recombinant catalytic domain of human neutrophil collagenase lacks type I collagen substrate specificity, Biochem. Biophys. Res. Commun. 191, 319-326).
as §1
1984 μl assay buffer (100 mM Tris-HCl pH 7,5, 100 mM NaCl, 10 mM CaCl2, 0,05% Brij 35) • 2 μl inhibitor dissolved in DMSO, or DMSO alone as a solvent control • 4 μl enzyme (MMP-2, MMP-9, or the catalytic domain of MMP-8) • 10 μl Mca-Pro-Leu-Gly-Leu-Dap(Dnp)-Ala-Arg-NH2 in DMSO Method • 1. Incubate buffer, enzyme, and inhibitor for 5 min at room temperature, with stirring. • 2. Start the reaction by adding 10 μl substrate in DMSO • 3. Record the increase in fluorescence intensity over 2 min. Confirmation of the Inhibitory Activity by Protein Zymographic Analysis

Assay [3] deals with Clostridium histolyticum collagenase (EC 3.4.24.3). The experiment in a line: Inhibition of Clostridium histolyticum collagenase, spectrophotometric FALGPA assay. Particulars: chromogenic substrate FALGPA; read-out: C. histolyticum (50% inhibition). The source says: The activity of Clostidium histolyticum collagenase may be readily determined by a simple spectrophotometric assay using the synthetic chromogenic peptide substrate N-(3-[2-furyl]acryloyi)-leucine-glycine-proline-alanine (FALGPA; Van Hart, H. E. and Steinbrink, D. R. 1981, Anal. Biochem. 113, 356). The degree of inhibition of the degradation of this chromogenic substrate by the addition of the various test substances described in Table 1 may be easily quantified. The enzyme and substrate are commercially available.

Assay [4] deals with T3, human matrix metalloproteinase-9 (MMP-9; gelatinase B) (Homo sapiens, UniProt P14780).
T3 construct: from tissue; host or cells: human buffy coat (blood leukocytes)
The experiment in a line: Inhibition of human matrix metalloproteinase-9 (gelatinase B). Conditions: trypsin-activated native MMP-9 from human buffy coat; read-out: MMP-9 (50% inhibition). On the procedure:
Native MMP-9 was reproducibly obtained with reasonable yield and purity from human buffy coat. Buffy coat, to which was added an appropriate volume of 10% (v/v) Triton-X-100 to obtain a final concentration of 0,4% detergent, was shaken on ice for 30 min; then, one volume of twofold-concentrated binding buffer (40 mM Tris-HCl pH 7,5, 10 mM CaCl2, 1 M NaCl, 0,2% (v/v) Triton X-100 was added and the mixture shaken on ice for a further 30 min.
The mixture was then centrifuged for 15 min at 16,000 rpm (30,590×g) in a Kendro SS-34 rotor at 4° C. and the resulting supernatant filtered over glass wool. The filtrate was incubated batchwise with gelatin-agarose equilibrated in binding buffer for 1 h on ice with continuous shaking The MMP-9-bound gelatin-agarose was then loaded into a chromatographic tube and the column washed with at least ten bed volumes of binding buffer, or until no protein was detected by absorbance at 280 nm in the wash buffer. MMP-9 was eluted from the gelatin affinity column by application of two bed volumes of binding buffer containing 5% (v/v) dimethylsulfoxide (DMSO).
The eluate was applied to a gel filtration column of Sephadex G-75 both to exchange buffer and to eliminate small amounts of contaminating MMP-2. The G-75 column was prepared and eluted with Buffer I [20 mM Tris-HCl pH 7,5, 5 mM CaCl2, 100 mM NaCl, 0,1% (v/v) Triton X-100].
The eluted MMP-9 includes the three characterized forms of the enzyme: monomer, homodimer, and heterodimer (complex with lipokalin). The purity of MMP-9 was estimated to be ca. 90%, with the remaining contaminating protein being fibronectin and small amounts of TIMPS.
The latent MMP-9 was activated by a 30-60 min incubation at 37° C. with 1/100 vol trypsin (10 mg ml^−1). The trypsin was subsequently inactivated by addition of the serine proteinase inhibitor phenlymethylsulfonylfluoride (PMSF) or the more specific trypsin inhibitor TLCK.
as §1
1984 μl assay buffer (100 mM Tris-HCl pH 7,5, 100 mM NaCl, 10 mM CaCl2, 0,05% Brij 35) • 2 μl inhibitor dissolved in DMSO, or DMSO alone as a solvent control • 4 μl enzyme (MMP-2, MMP-9, or the catalytic domain of MMP-8) • 10 μl Mca-Pro-Leu-Gly-Leu-Dap(Dnp)-Ala-Arg-NH2 in DMSO Method • 1. Incubate buffer, enzyme, and inhibitor for 5 min at room temperature, with stirring. • 2. Start the reaction by adding 10 μl substrate in DMSO • 3. Record the increase in fluorescence intensity over 2 min. […]

For orientation: Ki means a measure of affinity in units of concentration, obtained from inhibition or displacement.

T2 sequence (P22894 100-262 limits assumed): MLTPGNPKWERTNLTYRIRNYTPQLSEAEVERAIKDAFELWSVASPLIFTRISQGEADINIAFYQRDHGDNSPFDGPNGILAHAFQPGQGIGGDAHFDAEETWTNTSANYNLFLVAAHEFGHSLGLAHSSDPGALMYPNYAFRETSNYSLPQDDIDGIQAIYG
T3 sequence (P14780 107-707 limits assumed): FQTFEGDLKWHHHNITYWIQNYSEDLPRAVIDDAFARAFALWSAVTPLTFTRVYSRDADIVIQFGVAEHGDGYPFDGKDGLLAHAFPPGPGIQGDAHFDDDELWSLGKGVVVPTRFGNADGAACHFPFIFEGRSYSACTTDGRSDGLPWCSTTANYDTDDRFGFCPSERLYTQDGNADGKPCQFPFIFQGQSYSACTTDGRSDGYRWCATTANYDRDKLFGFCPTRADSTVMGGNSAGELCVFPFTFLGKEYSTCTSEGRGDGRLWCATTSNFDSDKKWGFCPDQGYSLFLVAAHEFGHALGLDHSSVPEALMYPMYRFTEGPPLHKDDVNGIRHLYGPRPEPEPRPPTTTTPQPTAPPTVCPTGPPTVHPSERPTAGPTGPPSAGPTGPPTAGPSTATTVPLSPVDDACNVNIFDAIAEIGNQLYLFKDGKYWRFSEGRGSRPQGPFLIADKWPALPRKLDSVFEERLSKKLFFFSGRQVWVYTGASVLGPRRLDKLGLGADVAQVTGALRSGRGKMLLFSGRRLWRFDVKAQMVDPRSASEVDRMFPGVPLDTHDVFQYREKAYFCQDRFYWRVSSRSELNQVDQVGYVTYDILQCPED

In the case of `CC(S)Cn1c(=O)[nH]c(=O)c2ccccc21` (racemic) [Example 1, (R,S)-1-(2-mercaptopropyl)-chinazolin-2,4(1H,3H)-dione], the IC50 in assay [1] came to 23.3 µM; in assay [3], 21 µM. Also, in assay [2], the Ki is 33.3 µM.

As for `CC(CS)Cn1c(=O)[nH]c2ccccc2c1=O` (racemic) [Example 19, (R,S)-3-[3-(2-methyl)-mercaptopropyl]chinazolin-2,4(1H,3H)-dione], the IC50 in assay [1] was 7.1 µM. Besides, the Ki in assay [2] was 3 µM.

Consider `CC(C)(S)Cn1c(=O)[nH]c(=O)c2ccccc21` [Example 2, 1-(2-mercapto-2-methylpropyl)-chinazolin-2,4(1H,3H)-dione], for which, in assay [1], the IC50 was 143 µM. Besides, in assay [2], the “MMP-8 (Ki value)” value is on record as “negative”.

As for `Cn1c(=O)c2ccccc2n(CCS)c1=O` [Example 6, 1-(2-mercaptoethyl)-3-methylchinazolin-2,4(1H,3H)-dione], the results for the IC50 in assay [1] and in assay [3] were 97.1 µM and 13.1 µM, respectively. Also, in assay [2], the “MMP-8 (Ki value)” value is reported as “negative”.

In the case of `CCn1c(=O)c2ccccc2n(CCS)c1=O` [Example 8, 3-ethyl-1-(2-mercaptoethyl)-chinazolin-2,4(1H,3H)-dione], the “MMP-8 (Ki value)” value in assay [2] is “negative”. The IC50 in assay [3] came out at 39.4 µM.

Regarding `CCn1c(=O)c2ccccc2n(CCCS)c1=O` [Example 9, 3-ethyl-1-(3-mercaptoprop-1-yl)-chinazolin-2,4(1H,3H)-dione], the IC50 came out at 13.9 µM in assay [1] and 43.4 µM in assay [4].

Turning to `COc1cc2c(=O)n(C)c(=O)n(CCS)c2cc1OC` [Example 10, 6,7-dimethoxy-1-(2-mercaptoethyl)-3-methyl-chinazolin-2,4(1H,3H)-dione], the results for the IC50 in assay [1] and in assay [3] were 6.3 µM and 31.5 µM, respectively.

As to `O=c1c2ccccc2n(CCS)c(=O)n1Cc1ccccc1` [Example 11, 3-benzyl-1-(2-mercaptoethyl)-chinazolin-2,4(1H,3H)-dione], the Ki in assay [2] is 33.3 µM. Also, the IC50 in assay [3] was determined as 22.4 µM.

For `O=c1[nH]c2ccccc2c(=O)n1CCCCCS` [Example 13, 3-(5-mercaptopent-1-yl)-chinazolin-2,4(1H,3H)-dione], the Ki in assay [2] is 20 µM.

As to `Cn1c(=O)c2ccccc2n(CCCSCC(=O)NO)c1=O` [Example 20, N-hydroxy-2-[3-(methyl-2,4-dioxo-3,4-dihydro-2H-chinazolin-1-yl)-propylsulfanyl]acetamide], the IC50 in assay [4] stood at 71.4 µM.
